For this assay, the target named is T1, Androgen Receptor (Homo sapiens, UniProt P10275).
T1 construct: endogenous in cells; host or cells: VCaP cells
T1 sequence (P10275 1-920): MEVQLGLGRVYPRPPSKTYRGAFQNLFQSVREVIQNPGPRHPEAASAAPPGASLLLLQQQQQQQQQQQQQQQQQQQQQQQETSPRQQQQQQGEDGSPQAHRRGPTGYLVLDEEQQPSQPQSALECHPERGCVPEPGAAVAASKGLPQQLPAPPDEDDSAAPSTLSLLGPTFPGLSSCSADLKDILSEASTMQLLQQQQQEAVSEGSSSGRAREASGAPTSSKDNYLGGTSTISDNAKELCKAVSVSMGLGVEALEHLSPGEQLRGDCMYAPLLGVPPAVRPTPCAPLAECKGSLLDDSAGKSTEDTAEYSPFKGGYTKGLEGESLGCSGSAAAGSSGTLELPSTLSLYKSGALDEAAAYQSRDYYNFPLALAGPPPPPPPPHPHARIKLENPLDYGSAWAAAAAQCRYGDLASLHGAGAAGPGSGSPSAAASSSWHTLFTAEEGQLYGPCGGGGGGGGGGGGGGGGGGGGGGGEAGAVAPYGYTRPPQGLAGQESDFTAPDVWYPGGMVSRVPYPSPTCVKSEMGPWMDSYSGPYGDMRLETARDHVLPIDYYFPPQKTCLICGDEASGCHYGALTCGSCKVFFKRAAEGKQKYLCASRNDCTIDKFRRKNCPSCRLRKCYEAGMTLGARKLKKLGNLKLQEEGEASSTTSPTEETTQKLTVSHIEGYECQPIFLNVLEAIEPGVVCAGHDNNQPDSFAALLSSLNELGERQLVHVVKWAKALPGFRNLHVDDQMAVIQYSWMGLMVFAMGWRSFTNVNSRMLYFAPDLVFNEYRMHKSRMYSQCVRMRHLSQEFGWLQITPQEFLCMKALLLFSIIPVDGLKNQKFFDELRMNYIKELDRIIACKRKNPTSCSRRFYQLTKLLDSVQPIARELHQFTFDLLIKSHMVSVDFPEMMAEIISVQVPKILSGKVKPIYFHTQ
The assay is described as follows: Androgen Receptor ELISA assay (PathScan AR ELISA) in VCaP cells: AR degradation, Dmax and DC50. The assay is classed as cell-based. The gist of the method:
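VCaP cells in phenol red-free RPMI with 5% charcoal-stripped FBS were grown at least 3 days, then given compound as 7 half-log doses in 0.1% DMSO with 0.1 nM R1881 for 24 h. Lysates went into a sandwich AR ELISA with TMB read at 450 nm.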

The mark [1] stands for this setting: read-out: VCaP DC50; concentration that caused 50% Androgen Receptor degradation, VCaP cells (Table 32).
The mark [2] stands for this setting: VCaP, highest percentage of Androgen Receptor degradation observed, VCaP cells (Table 32); read-out: VCaP Dmax (%).
Setting [3] is: concentration that caused 50% Androgen Receptor degradation, VCaP cells (Table 32); read-out: VCaP DC50.

Dmax and DC50 data for twelve molecules are collected here from patent publication US11427548B2 (Arvinas Operations, Inc., priority 2015, dated 2022).

Where two headings read alike, the source gives them in different places.

With `CC(C)(C)[C@H](NC(=O)COCCCCOc1ccc(-c2ccc(N3C(=S)N(c4ccc(C#N)c(Cl)c4F)C(=O)C3(C)C)cc2)cc1)C(=O)N1C[C@H](O)C[C@H]1C(=O)NCc1ccc(-c2cnco2)cc1` [Example 123, (2S,4R)-1-[(2S)-2-{2-[4-(4-{4-[3-(3-chloro-4-cyano-2-fluorophenyl)-5,5-dimethyl-4-oxo-2-sulfanylideneimidazolidin-1-yl]phenyl}phenoxy)butoxy]acetamido}-3,3-dimethylbutanoyl]-4-hydroxy-N-{[4-(1,3-oxazol-5-yl)phenyl]methyl}pyrrolidine-2-carboxamide], the Dmax (VCaP, read-out: VCaP Dmax (%)) is greater than 71%. For the same molecule, under setting [1], the 50% degradation concentration (DC50) was less than 50 nM. Take `CC(C)(C)[C@H](NC(=O)COCCCCOc1ccc(-c2ccc(N3C(=S)N(c4ccc(C#N)c(Cl)c4)C(=O)C34CCC4)cc2)cc1)C(=O)N1C[C@H](O)C[C@H]1C(=O)NCc1ccc(-c2cnco2)cc1` [Example 124, (2S,4R)-1-[(2S)-2-{2-[4-(4-{4-[7-(3-chloro-4-cyanophenyl)-8-oxo-6-sulfanylidene-5,7-diazaspiro[3.4]octan-5-yl]phenyl}phenoxy)butoxy]acetamido}-3,3-dimethylbutanoyl]-4-hydroxy-N-{[4-(1,3-oxazol-5-yl)phenyl]methyl}pyrrolidine-2-carboxamide]: the Dmax (VCaP, read-out: VCaP Dmax (%)) was 51 to 70%. Under setting [1], the half-maximal degradation concentration (DC50) is less than 50 nM.

Consider `Cc1cc(N2C(=O)C(C)(C)N(c3ccc(-c4ccc(OCCCCOCC(=O)N[C@H](C(=O)N5C[C@H](O)C[C@H]5C(=O)NCc5ccc(-c6cnco6)cc5)C(C)(C)C)cc4)cc3)C2=S)ccc1C#N` [Example 125, (2S,4R)-1-[(2S)-2-{2-[4-(4-{4-[3-(4-cyano-3-methylphenyl)-5,5-dimethyl-4-oxo-2-sulfanylideneimidazolidin-1-yl]phenyl}phenoxy)butoxy]acetamido}-3,3-dimethylbutanoyl]-4-hydroxy-N-{[4-(1,3-oxazol-5-yl)phenyl]methyl}pyrrolidine-2-carboxamide], for which the Dmax under setting [2] fell in the range of 51 to 70%. The 50% degradation concentration (DC50) under setting [3] was less than 50 nM.

Take `CC(C)(C)[C@H](NC(=O)COCCCCOc1ccc(-c2ccc(N3C(=S)N(c4ccc(C#N)c(F)c4)C(=O)C3(C)C)cc2)cc1)C(=O)N1C[C@H](O)C[C@H]1C(=O)NCc1ccc(-c2cnco2)cc1` [Example 126, (2S,4R)-1-[(2S)-2-{2-[4-(4-{4-[3-(4-cyano-3-fluorophenyl)-5,5-dimethyl-4-oxo-2-sulfanylideneimidazolidin-1-yl]phenyl}phen-oxy)butoxy]acetamido}-3,3-dimethylbutanoyl]-4-hydroxy-N-{[4-(1,3-oxazol-5-yl)phenyl]methyl}pyrrolidine-2-carboxamide]: under setting [2], the Dmax was 51 to 70%. The DC50 under setting [3] was less than 50 nM. On to `Cc1ncsc1-c1ccc(CNC(=O)[C@@H]2C[C@@H](O)CN2C(=O)[C@@H](NC(=O)COc2ccc(Oc3cccc(-c4ccc(N5C(=S)N(c6ccc(C#N)c(C(F)(F)F)c6)C(=O)C5(C)C)cc4)c3)cc2)C(C)(C)C)cc1` [Example 127, (2S,4R)-1-[(2S)-2-(2-{4-[3-(4-{3-[4-cyano-3-(trifluoromethyl)phenyl]-5,5-dimethyl-4-oxo-2-sulfanylideneimidazolidin-1-yl}phenyl)phen-oxy]phenoxy}acetamido)-3,3-dimethylbutanoyl]-4-hydroxy-N-{[4-(4-methyl-1,3-thiazol-5-yl)phenyl]methyl}pyrrolidine-2-carboxamide], for which the greatest degradation seen (Dmax) (VCaP, read-out: VCaP Dmax (%)) is greater than 71%. The DC50 under setting [1] was less than 50 nM. For `Cc1ncsc1-c1ccc(CNC(=O)[C@@H]2C[C@@H](O)CN2C(=O)[C@@H](NC(=O)COCCCOCc2ccc(-c3ccc(N4C(=S)N(c5ccc(C#N)c(C(F)(F)F)c5)C(=O)C4(C)C)cc3)cc2)C(C)(C)C)cc1` [Example 128, (2S,4R)-1-[(2S)-2-[2-(3-{[4-(4-{3-[4-cyano-3-(trifluoromethyl)phenyl]-5,5-dimethyl-4-oxo-2-sulfanylideneimidazolidin-1-yl}phenyl)phen-yl]methoxy}propoxy)acetamido]-3,3-dimethylbutanoyl]-4-hydroxy-N-{[4-(4-methyl-1,3-thiazol-5-yl)phenyl]methyl}pyrrolidine-2-carboxamide] the same measures were 51 to 70% and less than 50 nM. Take `Cc1ncsc1-c1ccc(CNC(=O)[C@@H]2C[C@@H](O)CN2C(=O)[C@@H](NC(=O)COCCC(O)COc2ccc(-c3ccc(N4C(=S)N(c5ccc(C#N)c(C(F)(F)F)c5)C(=O)C4(C)C)cc3)cc2)C(C)(C)C)cc1` (stereo partly drawn) [Example 129, (2S,4R)-1-[(2S)-2-(2-{4-[4-(4-{3-[4-cyano-3-(trifluoromethyl)phenyl]-5,5-dimethyl-4-oxo-2-sulfanylideneimidazolidin-1-yl}phenyl)phenoxy]-3-hydroxybutoxy}acetamido)-3,3-dimethylbutanoyl]-4-hydroxy-N-{[4-(4-methyl-1,3-thiazol-5-yl)phenyl]methyl}pyrrolidine-2-carboxamide]: the Dmax (VCaP, read-out: VCaP Dmax (%)) is 51 to 70%. For the same molecule, the half-maximal degradation concentration (DC50) under setting [1] is less than 50 nM. As to `Cc1ncsc1-c1ccc(CNC(=O)[C@@H]2C[C@@H](O)CN2C(=O)[C@@H](NC(=O)COC[C@H](O)CCOc2ccc(-c3ccc(N4C(=S)N(c5ccc(C#N)c(C(F)(F)F)c5)C(=O)C4(C)C)cc3)cc2)C(C)(C)C)cc1` [Example 130, (2S,4R)-1-[(2S)-2-{2-[(2R)-4-[4-(4-{3-[4-cyano-3-(trifluoromethyl)phenyl]-5,5-dimethyl-4-oxo-2-sulfanylideneimidazolidin-1-yl}phenyl)phenoxy]-2-hydroxybutoxy]acetamido}-3,3-dimethylbutanoyl]-4-hydroxy-N-{[4-(4-methyl-1,3-thiazol-5-yl)phenyl]methyl}pyrrolidine-2-carboxamide], the Dmax (VCaP, read-out: VCaP Dmax (%)) was 51 to 70%. The DC50 under setting [1] is less than 50 nM. As for `C[C@H](NC(=O)[C@@H]1C[C@@H](O)CN1C(=O)[C@@H](NC(=O)COCCCCOc1ccc(-c2ccc(N3C(=S)N(c4ccc(C#N)c(Cl)c4)C(=O)C3(C)C)cc2)cc1)C(C)(C)C)c1ccc(-c2cnco2)cc1` [Example 132, (2S,4R)-1-[(2S)-2-{2-[4-(4-{4-[3-(3-chloro-4-cyanophenyl)-5,5-dimethyl-4-oxo-2-sulfanylideneimidazolidin-1-yl]phenyl}phenoxy)butoxy]acetamido}-3,3-dimethylbutanoyl]-4-hydroxy-N-[(1S)-1-[4-(1,3-oxazol-5-yl)phenyl]ethyl]pyrrolidine-2-carboxamide], where the note is “VCaP, read-out: VCaP Dmax (%)”, the maximal degradation (Dmax) is greater than 71%. In addition, the DC50 under setting [1] is less than 50 nM.

Regarding `CC(C)(C)[C@H](NC(=O)COCCCCOc1ccc(-c2ccc(N3C(=S)N(c4cc(Cl)c(C#N)cc4F)C(=O)C3(C)C)cc2)cc1)C(=O)N1C[C@H](O)C[C@H]1C(=O)NCc1ccc(-c2cnco2)cc1` [Example 133, (2S,4R)-1-[(2S)-2-{2-[4-(4-{4-[3-(5-chloro-4-cyano-2-fluorophenyl)-5,5-dimethyl-4-oxo-2-sulfanylideneimidazolidin-1-yl]phenyl}phenoxy)butoxy]acetamido}-3,3-dimethylbutanoyl]-4-hydroxy-N-{[4-(1,3-oxazol-5-yl)phenyl]methyl}pyrrolidine-2-carboxamide], the Dmax (VCaP, read-out: VCaP Dmax (%)) is less than 25%. As for `Cc1ncoc1-c1ccc(CNC(=O)[C@@H]2C[C@@H](O)CN2C(=O)[C@@H](NC(=O)COCCCC(=O)Nc2ccc(-c3ccc(N4C(=S)N(c5ccc(C#N)c(C(F)(F)F)c5)C(=O)C4(C)C)cc3)cc2)C(C)(C)C)cc1` [Example 135, (2S,4R)-1-[(2S)-2-[2-(3-{[4-(4-{3-[4-cyano-3-(trifluoromethyl)phenyl]-5,5-dimethyl-4-oxo-2-sulfanylideneimidazolidin-1-yl}phenyl)phenyl]carbamoyl}pro-poxy)acetamido]-3,3-dimethylbutanoyl]-4-hydroxy-N-{[4-(4-methyl-1,3-oxazol-5-yl)phenyl]methyl}pyrrolidine-2-carboxamide], the Dmax (VCaP, read-out: VCaP Dmax (%)) lay in the range of 51 to 70%. Under setting [1], the DC50 was less than 50 nM. `Cc1cc(OCCCCOCC(=O)N[C@H](C(=O)N2C[C@H](O)C[C@H]2C(=O)NCc2ccc(-c3scnc3C)cc2)C(C)(C)C)ccc1-c1ccc(N2C(=S)N(c3ccc(C#N)c(C(F)(F)F)c3)C(=O)C2(C)C)cc1` [Example 136, (2S,4R)-1-[(2S)-2-(2-{4-[4-(4-{3-[4-cyano-3-(trifluoromethyl)phenyl]-5,5-dimethyl-4-oxo-2-sulfanylideneimidazolidin-1-yl}phenyl)-3-methylphenoxy]butoxy}acetamido)-3,3-dimethylbutanoyl]-4-hydroxy-N-{[4-(4-methyl-1,3-thiazol-5-yl)phenyl]methyl}pyrrolidine-2-carboxamide]: the maximal degradation (Dmax) (VCaP, read-out: VCaP Dmax (%)) was greater than 71%. Under setting [1], the half-maximal degradation concentration (DC50) is less than 50 nM.
